# Results: patent US8653263B2 (Janssen Pharmaceutica, priority 2009, dated 2014)
# Target: human orexin-2 receptor (Homo sapiens (Human), UniProt O43614)
# Experiment: Human orexin 2 receptor radioligand binding ([3H]-EMPA competition)
# Details: HEK293 cells stably expressing human orexin-2 receptor; [3H]-EMPA 5 nM final; apparent Ki=IC50/(1+C/Kd), Kd=2 nM; read-out: OR 2 Ki
# human orexin-2 receptor, sequence (O43614 whole entry): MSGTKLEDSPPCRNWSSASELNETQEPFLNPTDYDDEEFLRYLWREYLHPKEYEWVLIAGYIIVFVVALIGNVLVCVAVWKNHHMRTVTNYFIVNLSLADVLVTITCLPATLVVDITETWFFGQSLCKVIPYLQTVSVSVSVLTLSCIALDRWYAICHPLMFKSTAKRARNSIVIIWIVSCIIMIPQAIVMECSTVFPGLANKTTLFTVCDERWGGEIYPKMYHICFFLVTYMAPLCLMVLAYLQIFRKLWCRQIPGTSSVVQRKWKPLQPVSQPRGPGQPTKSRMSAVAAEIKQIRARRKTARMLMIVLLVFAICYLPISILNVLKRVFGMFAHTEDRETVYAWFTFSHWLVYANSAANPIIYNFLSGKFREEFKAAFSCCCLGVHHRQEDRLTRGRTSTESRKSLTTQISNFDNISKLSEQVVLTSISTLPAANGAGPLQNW
row,Structure (SMILES),Ki [nM]
1,"Cc1cc(C)nc(N2CC3CN(C(=O)c4cc(F)ccc4-c4ncccc4F)CC3C2)n1 (stereo not drawn) [Example 402, (5-(4,6-Dimethylpyrimidin-2-yl)hexahydropyrrolo[3,4-c]pyrrol-2(1H)-yl)(5-fluoro-2-(3-fluoropyridin-2-yl)phenyl)methanone]",120
2,"Cc1cc(C)nc(N2CC3CN(C(=O)c4cc(F)ccc4-c4ccccn4)CC3C2)n1 (stereo not drawn) [Example 403, (5-(4,6-Dimethylpyrimidin-2-yl)hexahydropyrrolo[3,4-c]pyrrol-2(1H)-yl)(5-fluoro-2-(pyridin-2-yl)phenyl)methanone]",180
3,"Cc1cc(C)nc(N2CC3CN(C(=O)c4cc(F)ccc4-c4ncco4)CC3C2)n1 (stereo not drawn) [Example 404, (5-(4,6-Dimethylpyrimidin-2-yl)hexahydropyrrolo[3,4-c]pyrrol-2(1H)-yl)(5-fluoro-2-(oxazol-2-yl)phenyl)methanone]",19
